Data from PMC9865645, “The Impact of N^ε-Acryloyllysine Piperazides on the Conformational Dynamics of Transglutaminase 2” (International Journal of Molecular Sciences, 2023).
Like-named read-outs stand apart in the source and are kept apart here.

What was measured:
[1] = biological target: T1, in-house produced N-terminally Twin-Strep-tagged hTGase 2 (Homo sapiens, UniProt P21980); assay: fluorescence anisotropy (FA)-based transamidase activity assay, in-house Twin-Strep-tagged hTGase 2; assay type: biochemical; conditions: 5 min pre-incubation of enzyme and inhibitor; mean (SEM) of three experiments
T1 construct: thrombin cleavage site (N); made in house; host or cells: E. coli BL21(DE3)
T1 sequence (P21980 1-687): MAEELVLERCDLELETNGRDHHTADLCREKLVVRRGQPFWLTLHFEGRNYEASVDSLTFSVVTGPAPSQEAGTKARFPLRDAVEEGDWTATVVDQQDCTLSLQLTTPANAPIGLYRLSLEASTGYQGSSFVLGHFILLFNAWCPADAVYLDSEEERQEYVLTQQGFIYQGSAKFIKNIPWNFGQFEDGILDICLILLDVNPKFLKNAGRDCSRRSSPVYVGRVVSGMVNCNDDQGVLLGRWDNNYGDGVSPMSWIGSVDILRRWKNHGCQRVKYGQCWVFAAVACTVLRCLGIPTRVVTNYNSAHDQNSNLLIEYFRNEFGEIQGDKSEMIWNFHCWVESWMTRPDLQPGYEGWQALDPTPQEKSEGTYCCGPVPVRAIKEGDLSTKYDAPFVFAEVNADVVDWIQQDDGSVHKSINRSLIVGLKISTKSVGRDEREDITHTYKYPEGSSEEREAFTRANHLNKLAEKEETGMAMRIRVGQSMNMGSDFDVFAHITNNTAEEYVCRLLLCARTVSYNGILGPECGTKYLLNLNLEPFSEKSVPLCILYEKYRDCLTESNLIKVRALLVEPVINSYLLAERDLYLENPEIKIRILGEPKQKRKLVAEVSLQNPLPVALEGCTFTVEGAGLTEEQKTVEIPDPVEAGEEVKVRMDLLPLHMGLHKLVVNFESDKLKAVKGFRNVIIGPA
Excerpt: The gene of hTGase 2 (Uniprot ID: P21980) with an N-terminal thrombin cleavage site was cloned into the pPSG-IBA105 vector containing the sequence for an N-terminal Twin-Strep-tag (IBA Lifesciences GmbH, Göttingen, Germany) to obtain the final plasmid pPSG-IBA105/TCS-hTGase 2. The plasmid construct was verified by DNA sequencing (Eurofins Genomics Germany GmbH) and then transformed into E. coli BL21(DE3) by the heat–shock method. hTGase 2-expressing E. coli cells were lysed by lysozyme treatment, and hTGase 2 was purified by affinity chromatography on an ÄKTA purifier UPC 10 FPLC equipped with a Strep-Tactin XT cartridge (GE Healthcare Europe GmbH, Freiburg, Germany). Identity and purity of self-produced hTGase 2 were verified by SDS-PAGE and Western Blot analysis, respectively. Protein concentration was determined according to Bradford. More detailed descriptions of the generation and characterization of the final plasmid construct pPSG-IBA105/TCS-hTGase 2 and the expression, purification, and characterization of the self-produced hTGase 2 protein will be published elsewhere (manuscript in preparation).
(§1) For the analysis of inhibitor 1 on self-produced hTGase 2, 2 µg/mL of the enzyme was used to guarantee comparability with the value reported by Wodtke et al., whereas all other experiments were performed with 5 µg/mL of either commercial or self-produced hTGase 2 (corresponding to 64.1 and 61.6 nM, respectively, when assuming 100% active protein). Parallel and perpendicular fluorescence intensities were measured over 1190 s in 35 s intervals (1) or over 1776 s in 48 s intervals (2, 3) and used to calculate the FA. Data of FA for the first 875 s (1) or 384 s (2, 3) were analyzed by linear regression, with slopes corresponding to enzymatic rates. Rates in the presence of inhibitor were normalized by dividing them by the respective rate in the absence of inhibitor, and normalized rates were analyzed according to Equation (S29) in Supplementary Materials to calculate values of IC50. Data analysis was performed with Microsoft Excel (Microsoft Office Professional Plus 2016, Microsoft® Corporation, USA) and GraphPad Prism version 5.03 or version 6.07 for Windows (GraphPad Software, La Jolla, CA, USA).

commercial His6-hTGase 2 [2] = biological target: T2, commercial His6-hTGase 2 (Homo sapiens, UniProt P21980); parameters: method as in PMID 29664627; conditions: 5 min pre-incubation of enzyme and inhibitor; mean (SEM); previously reported; cited from earlier work
T2 construct: purchased Zedira (Darmstadt, Germany) T022, lot 0716a
T2 sequence (P21980 1-687): T1 sequence (P21980 1-687)

His6-hTGase 2 [3] = biological target: T3, His6-hTGase 2 (Homo sapiens, UniProt P21980); parameters: method as in PMID 29664627; conditions: mean (SEM); previously reported; cited from earlier work
T3 construct: purchased Zedira (Darmstadt, Germany) T022, lot 0716a
T3 sequence (P21980 1-687): T1 sequence (P21980 1-687)

commercial His6-hTGase 2 [4] = biological target: T2, commercial His6-hTGase 2; assay: fluorescence anisotropy (FA)-based transamidase activity assay, commercial His6-hTGase 2; assay type: biochemical; conditions: 5 min pre-incubation of enzyme and inhibitor; mean (SEM) of three experiments
Description: as §1

His6-hTGase 2 [5] = biological target: T3, His6-hTGase 2; assay: fluorimetric activity assay (substrate Z-Glu(HMC)-Gly-OH) for kinact/KI; assay type: biochemical; conditions: mean (SEM) of two to four experiments
hTGase 2 = biological target: T4, hTGase 2 (Homo sapiens, UniProt P21980); assay: switchSENSE dynamic mode: upward motion (relative inverse slope, friction) of hTGase 2-dsDNA lever; conditions: 10 µM inhibitor with 1 mM Ca^2+, 0.1% DMSO, then pure TE40; non-directed labeling
T4 construct: purchased Zedira (Darmstadt, Germany) T022, lot 0716a
T4 sequence (P21980 1-687): T1 sequence (P21980 1-687)
Description: Prior to the measurement of the switching kinetics of the differently conjugated hTGase 2, a complementary ssDNA without the enzyme (500 nM) was hybridized to the single-stranded capture strands on the chip electrodes to obtain the reference kinetics of the dsDNA lever. In addition, to determine the impact of CaCl2 and DMSO on the movement of the bare dsDNA lever, and thus on reference kinetics, its switching behavior was investigated in TE40, TE40 + 1 mM CaCl2, TE40 + 1 mM CaCl2 + 1% DMSO or TE40 + 1 mM CaCl2 + 0.1% DMSO.
Then, the dehybridization of the reference lever occurred during a regeneration step followed by the hybridization with an ssDNA-hTGase 2 conjugate (500 nM). Thereafter, the switching kinetics was recorded. […]
The impact on the hydrodynamic drag of the hTGase 2-functionalized lever was investigated under identical conditions for the three irreversible inhibitors 1–3: At first, the switching kinetics of the dsDNA lever and the hTGase 2-dsDNA conjugates were recorded. Secondly, the switching kinetics of the hTGase 2-dsDNA conjugates during and after Ca^2+ exposure were recorded using TE40 + 1 mM CaCl2 or TE40, respectively. […] In this process, the hydrodynamic drag was analyzed during the exposure to 10 µM inhibitor (for 6 min) dissolved in TE40 + 1 mM CaCl2 + 0.1% DMSO and to TE40 afterward. […]

[6] = parameters: method as in doi:10.1039/DT9920002039, PMID 1868851; conditions: cited from earlier work

SMILES	IC50 [1] [nM]	IC50 (commercial His6-hTGase 2 [2]) [nM]	kinact/KI (His6-hTGase 2 [3])	IC50 (commercial His6-hTGase 2 [4]) [nM]	kinact/KI (His6-hTGase 2 [5]) [M⁻¹ s⁻¹]	friction (relative inverse slope) after removal of Ca^2+ and inhibitor ("after Ca^2+ + inhibitor") (hTGase 2)	pK value of H2GTP^3− (γP-OH) [6]	pK value of H3GTP^2− (N7^+H) [6]	pK value of HGTP^4− (N1H) [6]
C=CC(=O)NCCCCC(NC(=O)Cc1ccccc1)C(=O)N1CCN(c2cccc(F)n2)CC1 (stereo not shown) [Compound 1]	135	108	3850 (240) ^e M^−1s^−1	–	–	–	–	–	–
C=CC(=O)NCCCCC(NC(=O)Cc1ccccc1I)C(=O)N1CCN(c2ccc(C(F)(F)F)nc2)CC1 [Compound 3, N^α-(2-Iodophenylacetyl)-N^ε-acryloyl-L-lysin-4-(2-trifluoromethyl-5-yl)piperazide]	209	–	–	280	4500	significantly higher compared to “w/o” and “after Ca^2+”	–	–	–
Nc1nc2c(ncn2[C@@H]2O[C@H](COP(=O)(O)OP(=O)(O)OP(=O)(O)O)[C@@H](O)[C@H]2O)c(=O)[nH]1 [GTP]	–	–	–	–	–	–	6.5	2.9	9.6
